Measurements as given in PubChem BioAssay AID1918937 (Molecular Pharmacology Branch, DTP, NCI, 2023).

Test system: 521955-158-R2-J5-PDC complex spheroid viability
Test: Anticancer human tumor 521955-158-R2-J5-PDC patient-derived pancreatic carcinoma cell line growth inhibition
Details: for IC50: curve of first compound; for viability, T/C: stronger effect = lower value
How it was run: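 Multicellular complex spheroids of tumor cells with human endothelial cells (HUVEC) and mesenchymal stem cells; the LSD1 inhibitor iadademstat was combined with standard-of-care or investigational agents. Top concentration at or near clinical Cmax, half-log dilutions; final DMSO ≤0.25%.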

[1] = second compound 0.1 µM, first compound 0.000949 µM
[2] = second compound 0.1 µM, first compound 0.003 µM
[3] = second compound 0.1 µM, first compound 0.00949 µM
[4] = second compound 0.1 µM, first compound 0.03 µM
[5] = second compound 0.1 µM, first compound 0.0949 µM
[6] = second compound 0.1 µM, first compound 0.3 µM
[7] = second compound 0.316 µM, first compound 0.000949 µM
[8] = second compound 0.316 µM, first compound 0.003 µM
[9] = second compound 0.316 µM, first compound 0.00949 µM
[10] = second compound 0.316 µM, first compound 0.03 µM
[11] = second compound 0.316 µM, first compound 0.0949 µM
[12] = second compound 0.316 µM, first compound 0.3 µM
[13] = second compound 1 µM, first compound 0.000949 µM
[14] = second compound 1 µM, first compound 0.003 µM
[15] = second compound 1 µM, first compound 0.00949 µM
[16] = second compound 1 µM, first compound 0.03 µM
[17] = second compound 1 µM, first compound 0.0949 µM
[18] = second compound 1 µM, first compound 0.3 µM
[19] = second compound 3.16 µM, first compound 0.000949 µM
[20] = second compound 3.16 µM, first compound 0.003 µM
[21] = second compound 3.16 µM, first compound 0.00949 µM
[22] = second compound 3.16 µM, first compound 0.03 µM
[23] = second compound 3.16 µM, first compound 0.0949 µM
[24] = second compound 3.16 µM, first compound 0.3 µM
[25] = second compound 10 µM, first compound 0.000949 µM
[26] = second compound 10 µM, first compound 0.003 µM
[27] = second compound 10 µM, first compound 0.00949 µM
[28] = second compound 10 µM, first compound 0.03 µM
[29] = second compound 10 µM, first compound 0.0949 µM
[30] = second compound 10 µM, first compound 0.3 µM
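Also: spheroids exposed to agents for seven days.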
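For viability, T/C in this document: percent of DMSO vehicle control luminescence viability.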

Work on `CC[C@@]1(O)C(=O)OCc2c1cc1n(c2=O)Cc2cc3c(CN(C)C)c(O)ccc3nc2-1` + NC1CCC(NC2CC2c2ccccc2)CC1 yielded an IC50 (second compound 0.1 µM) of 4.87 nM, an IC50 (second compound 0.316 µM) of 4.89 nM and an IC50 (second compound 1 µM) of 4.35 nM. It also gave an IC50 (second compound 3.16 µM) of 4.78 nM, an IC50 (second compound 10 µM) of 4.55 nM and a viability, T/C (second compound 0.1 µM, first compound 0.000316 µM) of 100%. It also gave a viability, T/C (second compound 0.1 µM, first compound 0.001 µM) of 104%, a viability, T/C (second compound 0.1 µM, first compound 0.00316 µM) of 72.3% and a viability, T/C (second compound 0.1 µM, first compound 0.01 µM) of 12.8%. The viability, T/C (second compound 0.1 µM, first compound 0.0316 µM) was 7.11%, the viability, T/C (second compound 0.1 µM, first compound 0.1 µM) was 5.58% and the viability, T/C (second compound 0.316 µM, first compound 0.000316 µM) was 101%. For the same compound, the viability, T/C (second compound 0.316 µM, first compound 0.001 µM) was 97.2%, the viability, T/C (second compound 0.316 µM, first compound 0.00316 µM) was 72.9% and the viability, T/C (second compound 0.316 µM, first compound 0.01 µM) was 12.2%. The viability, T/C (second compound 0.316 µM, first compound 0.0316 µM) was 6.01%, the viability, T/C (second compound 0.316 µM, first compound 0.1 µM) was 4.82% and the viability, T/C (second compound 1 µM, first compound 0.000316 µM) was 97.3%. For the same compound, the viability, T/C (second compound 1 µM, first compound 0.001 µM) was 97.5%, the viability, T/C (second compound 1 µM, first compound 0.00316 µM) was 64.7% and the viability, T/C (second compound 1 µM, first compound 0.01 µM) was 11.7%. For the same compound, the viability, T/C (second compound 1 µM, first compound 0.0316 µM) was 6.84%, the viability, T/C (second compound 1 µM, first compound 0.1 µM) was 5.45% and the viability, T/C (second compound 3.16 µM, first compound 0.000316 µM) was 96.7%. It also gave a viability, T/C (second compound 3.16 µM, first compound 0.001 µM) of 94.9%, a viability, T/C (second compound 3.16 µM, first compound 0.00316 µM) of 70.5% and a viability, T/C (second compound 3.16 µM, first compound 0.01 µM) of 13.2%. It also gave a viability, T/C (second compound 3.16 µM, first compound 0.0316 µM) of 6.25%, a viability, T/C (second compound 3.16 µM, first compound 0.1 µM) of 4.49% and a viability, T/C (second compound 10 µM, first compound 0.000316 µM) of 104%. For the same compound, the viability, T/C (second compound 10 µM, first compound 0.001 µM) was 105%, the viability, T/C (second compound 10 µM, first compound 0.00316 µM) was 67% and the viability, T/C (second compound 10 µM, first compound 0.01 µM) was 13.1%. For the same compound, the viability, T/C (second compound 10 µM, first compound 0.0316 µM) was 6.18% and the viability, T/C (second compound 10 µM, first compound 0.1 µM) was 4.49%.

For `CCc1c2c(nc3ccc(O)cc13)-c1cc3c(c(=O)n1C2)COC(=O)[C@]3(O)CC` + NC1CCC(NC2CC2c2ccccc2)CC1, the IC50 (second compound 0.1 µM) was less than 0.949 nM, the IC50 (second compound 0.316 µM) was less than 0.949 nM and the IC50 (second compound 1 µM) was less than 0.949 nM. For the same compound, the IC50 (second compound 3.16 µM) was less than 0.949 nM, the IC50 (second compound 10 µM) was less than 0.949 nM and the viability, T/C [1] was 4.35%. The viability, T/C [2] was 3.31%, the viability, T/C [3] was 1.16% and the viability, T/C [4] was 0.45%. The viability, T/C [5] was 0.43%, the viability, T/C [6] was 0.63% and the viability, T/C [7] was 5.2%. The viability, T/C [8] was 4.07%, the viability, T/C [9] was 0.9% and the viability, T/C [10] was 0.54%. The viability, T/C [11] was 0.4%, the viability, T/C [12] was 0.58% and the viability, T/C [13] was 5.26%. For the same compound, the viability, T/C [14] was 3.09%, the viability, T/C [15] was 0.97% and the viability, T/C [16] was 0.59%. For the same compound, the viability, T/C [17] was 0.52%, the viability, T/C [18] was 0.46% and the viability, T/C [19] was 4.43%. It also gave a viability, T/C [20] of 3.74%, a viability, T/C [21] of 0.95% and a viability, T/C [22] of 0.3%. The viability, T/C [23] was 0.53%, the viability, T/C [24] was 1.4% and the viability, T/C [25] was 4.7%. The viability, T/C [26] was 4.29%, the viability, T/C [27] was 1.07% and the viability, T/C [28] was 0.67%. For the same compound, the viability, T/C [29] was 1.68% and the viability, T/C [30] was 0.55%.

Work on `COc1cc(C2c3cc4c(cc3C(OC3OC5COC(C)OC5C(O)C3O)C3COC(=O)C23)OCO4)cc(OC)c1O` (stereo not given) + NC1CCC(NC2CC2c2ccccc2)CC1 yielded an IC50 (second compound 0.1 µM) of 71.4 nM, an IC50 (second compound 0.316 µM) of 76.7 nM and an IC50 (second compound 1 µM) of 59.8 nM. For the same compound, the IC50 (second compound 3.16 µM) was 79.1 nM, the IC50 (second compound 10 µM) was 72.2 nM and the viability, T/C [3] was 106%. For the same compound, the viability, T/C [4] was 92.6%, the viability, T/C [5] was 35.4% and the viability, T/C [6] was 15.4%. The viability, T/C (second compound 0.1 µM, first compound 0.949 µM) was 9.48%, the viability, T/C (second compound 0.1 µM, first compound 3 µM) was 7.12% and the viability, T/C [9] was 102%. The viability, T/C [10] was 88.5%, the viability, T/C [11] was 40.6% and the viability, T/C [12] was 15.8%. It also gave a viability, T/C (second compound 0.316 µM, first compound 0.949 µM) of 10.4%, a viability, T/C (second compound 0.316 µM, first compound 3 µM) of 6.65% and a viability, T/C [15] of 93.3%. For the same compound, the viability, T/C [16] was 77.7%, the viability, T/C [17] was 30.6% and the viability, T/C [18] was 16.2%. It also gave a viability, T/C (second compound 1 µM, first compound 0.949 µM) of 8.2%, a viability, T/C (second compound 1 µM, first compound 3 µM) of 6.77% and a viability, T/C [21] of 96.6%. It also gave a viability, T/C [22] of 91.3%, a viability, T/C [23] of 41.2% and a viability, T/C [24] of 17.7%. It also gave a viability, T/C (second compound 3.16 µM, first compound 0.949 µM) of 9.09%, a viability, T/C (second compound 3.16 µM, first compound 3 µM) of 7.34% and a viability, T/C [27] of 99.4%. For the same compound, the viability, T/C [28] was 94.4%, the viability, T/C [29] was 35.6% and the viability, T/C [30] was 18%. For the same compound, the viability, T/C (second compound 10 µM, first compound 0.949 µM) was 7.96% and the viability, T/C (second compound 10 µM, first compound 3 µM) was 6.31%.

Compound `Nc1ccn(C2OC(CO)C(O)C2(F)F)c(=O)n1` (stereo not given) + NC1CCC(NC2CC2c2ccccc2)CC1 has an IC50 (second compound 0.1 µM) of 50.9 nM, an IC50 (second compound 0.316 µM) of 55.5 nM and an IC50 (second compound 1 µM) of 56.2 nM. It also gave an IC50 (second compound 3.16 µM) of 50.1 nM, an IC50 (second compound 10 µM) of 43.5 nM and a viability, T/C [1] of 105%. It also gave a viability, T/C [2] of 104%, a viability, T/C [3] of 96.8% and a viability, T/C [4] of 68.4%. It also gave a viability, T/C [5] of 28.4%, a viability, T/C [6] of 16.3% and a viability, T/C [7] of 105%. The viability, T/C [8] was 98.8%, the viability, T/C [9] was 96.2% and the viability, T/C [10] was 79.7%. The viability, T/C [11] was 24.2%, the viability, T/C [12] was 11.2% and the viability, T/C [13] was 95.3%. For the same compound, the viability, T/C [14] was 97.2%, the viability, T/C [15] was 90.1% and the viability, T/C [16] was 74.8%. It also gave a viability, T/C [17] of 29.5%, a viability, T/C [18] of 12.6% and a viability, T/C [19] of 104%. The viability, T/C [20] was 96.6%, the viability, T/C [21] was 82.6% and the viability, T/C [22] was 69.5%. It also gave a viability, T/C [23] of 28.8%, a viability, T/C [24] of 12.8% and a viability, T/C [25] of 101%. The viability, T/C [26] was 98%, the viability, T/C [27] was 83.7% and the viability, T/C [28] was 63.2%. For the same compound, the viability, T/C [29] was 26% and the viability, T/C [30] was 10.4%.
